Measured values: US12077503B2, “Substituted cyclic amides and their use as herbicides” (FMC CORPORATION, priority 2015, dated 2024)

Assays:
Type in all cases: in vivo
[1] = tested on: Kochia (Kochia scoparia); assay: Test A preemergence; conditions: Bassia scoparia, pre-emergence, 240 h, 0 to 100 scale where 0 is no effect and 100 is complete control, read-out: Kochia plant response rating
Outline: (§1)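 Greenhouse, ~10 d after spray; visual injury vs untreated controls, 0 = no effect, 100 = complete control. Preemergence: directed soil spray over planted seeds. Postemergence: plants 2–10 cm, 1–2 leaf stage. Loam/sand blend. Compound in non-phytotoxic solvent with surfactant.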

[2] = tested on: barnyardgrass (Echinochloa crus-galli); assay: Test A preemergence; conditions: Echinochloa crus-galli, pre-emergence, 240 h, 0 to 100 scale where 0 is no effect and 100 is complete control, read-out: Barnyardgrass plant response rating
Outline: as §1

[3] = tested on: giant foxtail (Setaria faberii); assay: Test A preemergence; conditions: Setaria faberi, pre-emergence, 240 h, 0 to 100 scale where 0 is no effect and 100 is complete control, read-out: Foxtail, Giant plant response rating
Outline: as §1

[4] = tested on: pigweed (Amaranthus retroflexus); assay: Test A preemergence; conditions: Amaranthus retroflexus, pre-emergence, 240 h, 0 to 100 scale where 0 is no effect and 100 is complete control, read-out: Pigweed plant response rating
[5] = tested on: ragweed (common ragweed, Ambrosia elatior); assay: Test A preemergence; conditions: Ambrosia artemisiifolia, pre-emergence, 240 h, 0 to 100 scale where 0 is no effect and 100 is complete control, read-out: Ragweed plant response rating
Outline: as §1

[6] = tested on: ryegrass, Italian (Italian ryegrass, Lolium multiflorum); assay: Test A preemergence; conditions: Lolium multiflorum, pre-emergence, 240 h, 0 to 100 scale where 0 is no effect and 100 is complete control, read-out: Ryegrass, Italian plant response rating
Outline: as §1

[7] = tested on: Galium (catchweed bedstraw, Galium aparine); assay: Test A postemergence; conditions: Galium, post-emergence, 240 h
Outline: as §1

[8] = tested on: Kochia (Kochia scoparia); assay: Test A postemergence; conditions: Bassia scoparia, post-emergence, 240 h
Outline: as §1

[9] = tested on: barnyardgrass (Echinochloa crus-galli); assay: Test A postemergence; conditions: Echinochloa crus-galli, post-emergence, 240 h
Outline: as §1

[10] = tested on: blackgrass (Alopecurus myosuroides); assay: Test A postemergence; conditions: Alopecurus myosuroides, post-emergence, 240 h
Outline: as §1

[11] = tested on: corn (Zea mays); assay: Test A postemergence; conditions: Zea mays, post-emergence, 240 h
Outline: as §1

[12] = tested on: giant foxtail (Setaria faberii); assay: Test A postemergence; conditions: Setaria faberi, post-emergence, 240 h
Outline: as §1

[13] = tested on: pigweed (Amaranthus retroflexus); assay: Test A postemergence; conditions: Amaranthus retroflexus, post-emergence, 240 h
Outline: as §1

[14] = tested on: ragweed (common ragweed, Ambrosia elatior); assay: Test A postemergence; conditions: Ambrosia artemisiifolia, post-emergence, 240 h
Outline: as §1

[15] = tested on: ryegrass, Italian (Italian ryegrass, Lolium multiflorum); assay: Test A postemergence; conditions: Lolium multiflorum, post-emergence, 240 h
Outline: as §1

[16] = tested on: wheat (Triticum aestivum); assay: Test A postemergence; conditions: Triticum aestivum, post-emergence, 240 h
Outline: as §1

[17] = tested on: barnyardgrass (Echinochloa crus-galli); assay: Test B flooded paddy test; conditions: Echinochloa crus-galli, 250 g ai/ha, Flood; 0 to 100 scale where 0 is no effect and 100 is complete control; read-out: Barnyardgrass plant response rating
Outline: (§2)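 Flooding to 3 cm over soil accompanied treatment, which consisted of adding compound to the standing water around 2-leaf plants; depth was then maintained. Visual assessment versus controls followed at 13 to 15 d (scale 0–100, 0 meaning no effect).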

[18] = tested on: ducksalad (Heteranthera limosa); assay: Test B flooded paddy test; conditions: Heteranthera limosa, 250 g ai/ha, Flood; 0 to 100 scale where 0 is no effect and 100 is complete control; read-out: Ducksalad plant response rating
Outline: as §2

[19] = tested on: rice (Oryra sativa); assay: Test B flooded paddy test; conditions: Oryza sativa, 250 g ai/ha, Flood; 0 to 100 scale where 0 is no effect and 100 is complete control; read-out: Rice plant response rating
Outline: as §2

[20] = tested on: sedge, umbrella (small-flower umbrella sedge, Cyperus difformis); assay: Test B flooded paddy test; conditions: Cyperus difformis, 250 g ai/ha, Flood; 0 to 100 scale where 0 is no effect and 100 is complete control; read-out: Sedge, Umbrella plant response rating
Outline: as §2

[21] = 125 g ai/ha, preemergence, approx. 10 d

Compound: CN1C[C@H](c2csc3c2CCCC3)[C@@H](C(=O)Nc2ccc(F)c(F)c2F)C1=O [Compound 1079]
- pest or weed control at 31 g/ha ([1]; 31 g ai/ha, Preemergence): 0%
- pest or weed control at 125 g/ha [1, 21]: 0%
- pest or weed control at 31 g/ha ([2]; 31 g ai/ha, Preemergence): 0%
- pest or weed control at 125 g/ha [2, 21]: 80%
- pest or weed control at 31 g/ha ([3]; 31 g ai/ha, Preemergence): 20%
- pest or weed control at 125 g/ha [3, 21]: 100%
- pest or weed control at 31 g/ha ([4]; 31 g ai/ha, Preemergence): 0%
- pest or weed control at 125 g/ha [4, 21]: 0%
- pest or weed control at 31 g/ha ([5]; 31 g ai/ha, Preemergence): 0%
- pest or weed control at 125 g/ha [5, 21]: 0%
- pest or weed control at 31 g/ha ([6]; 31 g ai/ha, Preemergence): 0%
- pest or weed control at 125 g/ha [6, 21]: 0%
- pest or weed control at 125 g/ha ([7]; 125 g ai/ha, postemergence, visual injury on 0 to 100 scale (0 no effect, 100 complete control), approx. 10 d, read-out: Galium plant response rating): 0%
- pest or weed control at 31 g/ha ([7]; Postemergence, 31 g ai/ha, visual injury after approx. 10 d, 0 to 100 scale, 0 no effect, 100 complete control, read-out: Plant response rating, Galium): 0%
- pest or weed control at 125 g/ha ([8]; 125 g ai/ha, postemergence, visual injury on 0 to 100 scale (0 no effect, 100 complete control), approx. 10 d, read-out: Kochia plant response rating): 20%
- pest or weed control at 31 g/ha ([8]; Postemergence, 31 g ai/ha, visual injury after approx. 10 d, 0 to 100 scale, 0 no effect, 100 complete control, read-out: Plant response rating, Kochia): 0%
- pest or weed control at 125 g/ha ([9]; 125 g ai/ha, postemergence, visual injury on 0 to 100 scale (0 no effect, 100 complete control), approx. 10 d, read-out: Barnyardgrass plant response rating): 90%
- pest or weed control at 31 g/ha ([9]; Postemergence, 31 g ai/ha, visual injury after approx. 10 d, 0 to 100 scale, 0 no effect, 100 complete control, read-out: Plant response rating, Barnyardgrass): 20%
- pest or weed control at 125 g/ha ([10]; 125 g ai/ha, postemergence, visual injury on 0 to 100 scale (0 no effect, 100 complete control), approx. 10 d, read-out: Blackgrass plant response rating): 0%
- pest or weed control at 31 g/ha ([10]; Postemergence, 31 g ai/ha, visual injury after approx. 10 d, 0 to 100 scale, 0 no effect, 100 complete control, read-out: Plant response rating, Blackgrass): 0%
- plant injury at 125 g/ha ([11]; 125 g ai/ha, postemergence, visual injury on 0 to 100 scale (0 no effect, 100 complete control), approx. 10 d, read-out: Corn plant response rating): 0%
- Corn plant response rating (crop injury, 0 = no effect, 100 = complete kill) at 31 g/ha ([11]; Postemergence, 31 g ai/ha, visual injury after approx. 10 d, 0 to 100 scale, 0 no effect, 100 complete control): 0%
- pest or weed control at 125 g/ha ([12]; 125 g ai/ha, postemergence, visual injury on 0 to 100 scale (0 no effect, 100 complete control), approx. 10 d, read-out: Foxtail, Giant plant response rating): 20%
- pest or weed control at 31 g/ha ([12]; Postemergence, 31 g ai/ha, visual injury after approx. 10 d, 0 to 100 scale, 0 no effect, 100 complete control, read-out: Plant response rating, Foxtail, Giant): 0%
- pest or weed control at 125 g/ha ([13]; 125 g ai/ha, postemergence, visual injury on 0 to 100 scale (0 no effect, 100 complete control), approx. 10 d, read-out: Pigweed plant response rating): 0%
- pest or weed control at 31 g/ha ([13]; Postemergence, 31 g ai/ha, visual injury after approx. 10 d, 0 to 100 scale, 0 no effect, 100 complete control, read-out: Plant response rating, Pigweed): 0%
- pest or weed control at 125 g/ha ([14]; 125 g ai/ha, postemergence, visual injury on 0 to 100 scale (0 no effect, 100 complete control), approx. 10 d, read-out: Ragweed plant response rating): 0%
- pest or weed control at 31 g/ha ([14]; Postemergence, 31 g ai/ha, visual injury after approx. 10 d, 0 to 100 scale, 0 no effect, 100 complete control, read-out: Plant response rating, Ragweed): 0%
- pest or weed control at 125 g/ha ([15]; 125 g ai/ha, postemergence, visual injury on 0 to 100 scale (0 no effect, 100 complete control), approx. 10 d, read-out: Ryegrass, Italian plant response rating): 0%
- pest or weed control at 31 g/ha ([15]; Postemergence, 31 g ai/ha, visual injury after approx. 10 d, 0 to 100 scale, 0 no effect, 100 complete control, read-out: Plant response rating, Ryegrass, Italian): 0%
- plant injury at 125 g/ha ([16]; 125 g ai/ha, postemergence, visual injury on 0 to 100 scale (0 no effect, 100 complete control), approx. 10 d, read-out: Wheat plant response rating): 30%
- plant injury at 31 g/ha ([16]; Postemergence, 31 g ai/ha, visual injury after approx. 10 d, 0 to 100 scale, 0 no effect, 100 complete control, read-out: Plant response rating, Wheat): 0%
- pest or weed control at 250 g/ha [17]: 60%
- pest or weed control at 250 g/ha [18]: 30%
- pest or weed control at 250 g/ha [19]: 20%
- pest or weed control at 250 g/ha [20]: 0%
